According to PubChem BioAssay (NCI):
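Dose response: 5 concentrations. Exposure: 48 h. Format: 96-well plates. Endpoint: linear interpolation; highest concentration if not reached. At the GI50, growth is halved. TGI: concentration producing complete growth inhibition.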

Tests used:
Experiment in all cases: NCI-60 cell line screen, 48 h
BT-549 breast = system: BT-549 breast
LOX IMVI melanoma = system: LOX IMVI melanoma
MALME-3M melanoma = system: MALME-3M melanoma
K-562 leukemia = system: K-562 leukemia
KM12 colon = system: KM12 colon
SR leukemia = system: SR leukemia
SK-MEL-28 melanoma = system: SK-MEL-28 melanoma
EKVX NSCLC = system: EKVX NSCLC
NCI/ADR-RES ovarian = system: NCI/ADR-RES ovarian
SK-MEL-5 melanoma = system: SK-MEL-5 melanoma
COLO 205 colon = system: COLO 205 colon
MDA-MB-231 breast = system: MDA-MB-231 breast
U251 CNS = system: U251 CNS
SF-295 CNS = system: SF-295 CNS
PC-3 prostate = system: PC-3 prostate
T-47D breast = system: T-47D breast
DU-145 prostate = system: DU-145 prostate
TK-10 renal = system: TK-10 renal
IGROV1 ovarian = system: IGROV1 ovarian
SNB-75 CNS = system: SNB-75 CNS
HS 578T breast = system: HS 578T breast
ACHN renal = system: ACHN renal
NCI-H460 lung = system: NCI-H460 lung
MCF7 breast = system: MCF7 breast
SW-620 colon = system: SW-620 colon
A549 NSCLC = system: A549 NSCLC
SNB-19 CNS = system: SNB-19 CNS
HCT-116 colon = system: HCT-116 colon
SF-268 CNS = system: SF-268 CNS
SN12C renal = system: SN12C renal
NCI-H226 lung = system: NCI-H226 lung
A498 renal = system: A498 renal
UACC-62 melanoma = system: UACC-62 melanoma
MDA-MB-435 = system: MDA-MB-435
OVCAR-4 ovarian = system: OVCAR-4 ovarian
HCC-2998 colon = system: HCC-2998 colon
NCI-H23 lung = system: NCI-H23 lung
UACC-257 melanoma = system: UACC-257 melanoma
NCI-H522 lung = system: NCI-H522 lung
SF-539 CNS = system: SF-539 CNS
MOLT-4 leukemia = system: MOLT-4 leukemia
HOP-92 NSCLC = system: HOP-92 NSCLC
SK-OV-3 ovarian = system: SK-OV-3 ovarian
CAKI-1 renal = system: CAKI-1 renal
OVCAR-5 ovarian = system: OVCAR-5 ovarian
OVCAR-3 ovarian = system: OVCAR-3 ovarian
HOP-62 NSCLC = system: HOP-62 NSCLC
CCRF-CEM leukemia = system: CCRF-CEM leukemia
OVCAR-8 ovarian = system: OVCAR-8 ovarian
M14 melanoma = system: M14 melanoma
RPMI-8226 leukemia = system: RPMI-8226 leukemia
HCT-15 colon = system: HCT-15 colon
HT29 colon = system: HT29 colon
SK-MEL-2 melanoma = system: SK-MEL-2 melanoma
786-0 renal = system: 786-0 renal
UO-31 renal = system: UO-31 renal
RXF 393 renal = system: RXF 393 renal
HL-60(TB) leukemia = system: HL-60(TB) leukemia

`Cc1cc2c(C(C)C)c(O)c(O)c(C=O)c2c(O)c1-c1c(C)cc2c(C(C)C)c(O)c(O)c(C=O)c2c1O` (tested in a mixture with another compound) showed a GI50 (BT-549 breast) of 1260 nM, a TGI (BT-549 breast) of 3.76 µM and a GI50 (LOX IMVI melanoma) of 1160 nM. For the same compound, the TGI (LOX IMVI melanoma) was 2540 nM, the GI50 (MALME-3M melanoma) was 1740 nM and the TGI (MALME-3M melanoma) was 5.01 µM. For the same compound, the GI50 (K-562 leukemia) was 425 nM, the TGI (K-562 leukemia) was 20.7 µM and the GI50 (KM12 colon) was 394 nM. For the same compound, the TGI (KM12 colon) was 1510 nM, the GI50 (SR leukemia) was 1460 nM and the TGI (SR leukemia) was 17.8 µM. The GI50 (SK-MEL-28 melanoma) was 1640 nM, the TGI (SK-MEL-28 melanoma) was 3.64 µM and the GI50 (EKVX NSCLC) was 473 nM. The TGI (EKVX NSCLC) was 3.18 µM, the GI50 (NCI/ADR-RES ovarian) was 825 nM and the TGI (NCI/ADR-RES ovarian) was 2560 nM. It also gave a GI50 (SK-MEL-5 melanoma) of 1540 nM, a TGI (SK-MEL-5 melanoma) of 2950 nM and a GI50 (COLO 205 colon) of 1360 nM. It also gave a TGI (COLO 205 colon) of 2870 nM, a GI50 (MDA-MB-231 breast) of 2110 nM and a TGI (MDA-MB-231 breast) of 5.8 µM. The GI50 (U251 CNS) was 502 nM, the TGI (U251 CNS) was 1930 nM and the GI50 (SF-295 CNS) was 325 nM. The TGI (SF-295 CNS) was 1710 nM, the GI50 (PC-3 prostate) was 455 nM and the TGI (PC-3 prostate) was 3.42 µM. For the same compound, the GI50 (T-47D breast) was 1770 nM, the TGI (T-47D breast) was 7.03 µM and the GI50 (DU-145 prostate) was 1120 nM. It also gave a TGI (DU-145 prostate) of 3.07 µM, a GI50 (TK-10 renal) of 546 nM and a TGI (TK-10 renal) of 2930 nM. It also gave a GI50 (IGROV1 ovarian) of 979 nM, a TGI (IGROV1 ovarian) of 12.7 µM and a GI50 (SNB-75 CNS) of 1550 nM. The TGI (SNB-75 CNS) was 5.03 µM, the GI50 (HS 578T breast) was 543 nM and the TGI (HS 578T breast) was 4.33 µM. For the same compound, the GI50 (ACHN renal) was 545 nM, the TGI (ACHN renal) was 2210 nM and the GI50 (NCI-H460 lung) was 484 nM. For the same compound, the TGI (NCI-H460 lung) was 1870 nM, the GI50 (MCF7 breast) was 1180 nM and the TGI (MCF7 breast) was 6.9 µM. The GI50 (SW-620 colon) was 806 nM, the TGI (SW-620 colon) was 2330 nM and the GI50 (A549 NSCLC) was 468 nM. It also gave a TGI (A549 NSCLC) of 2380 nM, a GI50 (SNB-19 CNS) of 686 nM and a TGI (SNB-19 CNS) of 9.47 µM. For the same compound, the GI50 (HCT-116 colon) was 455 nM, the TGI (HCT-116 colon) was 1610 nM and the GI50 (SF-268 CNS) was 1060 nM. The TGI (SF-268 CNS) was 3.26 µM, the GI50 (SN12C renal) was 1660 nM and the TGI (SN12C renal) was 5.95 µM. For the same compound, the GI50 (NCI-H226 lung) was 1390 nM, the TGI (NCI-H226 lung) was 4.95 µM and the GI50 (A498 renal) was 1290 nM. The TGI (A498 renal) was 2920 nM, the GI50 (UACC-62 melanoma) was 1870 nM and the TGI (UACC-62 melanoma) was 4.23 µM. The GI50 (MDA-MB-435) was 1860 nM, the TGI (MDA-MB-435) was 5.19 µM and the GI50 (OVCAR-4 ovarian) was 1450 nM. The TGI (OVCAR-4 ovarian) was 9.99 µM, the GI50 (HCC-2998 colon) was 484 nM and the TGI (HCC-2998 colon) was 1760 nM. The GI50 (NCI-H23 lung) was 464 nM, the TGI (NCI-H23 lung) was 2030 nM and the GI50 (UACC-257 melanoma) was 1790 nM. It also gave a TGI (UACC-257 melanoma) of 4.12 µM, a GI50 (NCI-H522 lung) of 584 nM and a TGI (NCI-H522 lung) of 2440 nM. The GI50 (SF-539 CNS) was 1330 nM, the TGI (SF-539 CNS) was 4.42 µM and the GI50 (MOLT-4 leukemia) was 748 nM. It also gave a TGI (MOLT-4 leukemia) of 13.6 µM, a GI50 (HOP-92 NSCLC) of 223 nM and a TGI (HOP-92 NSCLC) of 909 nM. The GI50 (SK-OV-3 ovarian) was 1780 nM, the TGI (SK-OV-3 ovarian) was 9.33 µM and the GI50 (CAKI-1 renal) was 966 nM. For the same compound, the TGI (CAKI-1 renal) was 4.81 µM, the GI50 (OVCAR-5 ovarian) was 1650 nM and the TGI (OVCAR-5 ovarian) was 5.26 µM. The GI50 (OVCAR-3 ovarian) was 1030 nM, the TGI (OVCAR-3 ovarian) was 2690 nM and the GI50 (HOP-62 NSCLC) was 988 nM. It also gave a TGI (HOP-62 NSCLC) of 2900 nM, a GI50 (CCRF-CEM leukemia) of 546 nM and a TGI (CCRF-CEM leukemia) of 13.7 µM. The GI50 (OVCAR-8 ovarian) was 1180 nM, the TGI (OVCAR-8 ovarian) was 3.49 µM and the GI50 (M14 melanoma) was 1500 nM. For the same compound, the TGI (M14 melanoma) was 3.61 µM, the GI50 (RPMI-8226 leukemia) was 529 nM and the TGI (RPMI-8226 leukemia) was 4.74 µM. For the same compound, the GI50 (HCT-15 colon) was 790 nM, the TGI (HCT-15 colon) was 2990 nM and the GI50 (HT29 colon) was 1610 nM. It also gave a TGI (HT29 colon) of 3.51 µM, a GI50 (SK-MEL-2 melanoma) of 1640 nM and a TGI (SK-MEL-2 melanoma) of 4.07 µM. For the same compound, the GI50 (786-0 renal) was 819 nM, the TGI (786-0 renal) was 3.29 µM and the GI50 (UO-31 renal) was 1640 nM. The TGI (UO-31 renal) was 4.56 µM, the GI50 (RXF 393 renal) was 1000 nM and the TGI (RXF 393 renal) was 2520 nM. For the same compound, the GI50 (HL-60(TB) leukemia) was 535 nM and the TGI (HL-60(TB) leukemia) was 5.74 µM.
